# Test system: ovariectomized mice
# Assay: 3-point bending biomechanical test on femur of ovariectomized mice after single microbe transplantation
# Format: in vivo
# Description: Animals: All C57BL/6J mice were purchased from Janvier Labs, and kept in a specific pathogen-free (SPF) facility in individually ventilated cages. All the mice were in a 12 h day/night cycle and fed a standard chow diet (16.2 MJ/kg Gross Energy; 9 kJ % Fat, 33 kJ % Protein, 58 kJ % Carbohydrates, V1534-727, Ssniff, Germany). All the mice were either male and entered the experiment at 8 weeks of age, or female starting at 16 weeks of age (for the ovariectomy experiment). Acclimatized animals were allocated into groups based on their body weight to ensure equal starting points. Warmth exposure was done at 34° C. in a light and humidity-controlled climatic chamber (TSE, Germany) in SPF conditions using individually ventilated cages All mice were sacrificed after 5 h fasting. Bone samples for CT-scan and biomecanics analysis were stored in a humid package at −20° C. All animal experiments were approved by the Swiss federal and Geneva cantonal authorities for animal experimentation (Office Vétérinaire Fédéral and Commission Cantonale pour les Expériences sur les animaux de Genève).
# Ovariectomy: Mice were anesthetised with Xylazin/Ketamin (injection of 120 μl of a mixture of 120 mg/kg ketamine and 16 mg/kg xylazine) and shaved below the ribs on the back side. Betadine was applied to the area for appropriate disinfection. After a 1-2 cm incision through the skin and the muscle layer just below the ribs, the ovary was localized, the fallopian tube ligated with dissolving suture and the ovary removed. […]
# Biomechanical analysis of the bones: We used a 3-points bending test to measure biomechanical parameters of the bone. […] Mechanical resistance to failure (displacement and load applied) was measured using a servo-controlled electromechanical system (Instron 1114, Instron corp., High Wycombe, UK) with actuator displaced at 2 mm/minute. Ultimate force (maximal load, measured in Newtons [N]), Yield point (N), stiffness (elastic energy, N/mm), and energy to fracture (surface under the curve of the plastic region, N*mm) were calculated. Young's modulus (MPa) was determined.
# [1] = gavage every second day for 2 month, starting 3 days post-surgery
substance,measurement,setting,value
Lactobacillus reuteri,"increased displacement (post-yield displacement), femur",[1],reduce or prevent
same,"reduction in ultimate force (ultimate strength), femur",[1],reduce or prevent the reduction
same,bone fragility induced by ovariectomy,"legend of FIGS. 7A-C, overall statement",can reduce or prevent
